Experimental data reported in patent US10723692B2, “Lipids and lipid nanoparticle formulations for delivery of nucleic acids” (Acuitas Therapeutics, Inc., priority 2014, dated 2020).
Where two headings read alike, the source gives them in different places.

Key:
[1] = tested on: luciferase expression in the liver; test: In vivo luciferase mRNA expression rodent model (LNP, liver luciferase); set-up: species or system C57BL/6 mice; details: tail vein, liver 4 hours; for Liver Luc @ 0.3 mg/kg (ng luc/g liver): 0.3 mg mRNA/kg; for Liver Luc @ 1.0 mg/kg (ng luc/g liver): 1.0 mg mRNA/kg
Experimental: Cationic lipid (MC3), DSPC, cholesterol and PEG-lipid were solubilized in ethanol at a molar ratio of 50:10:38.5:1.5. Lipid nanoparticles (LNP) were prepared at a total lipid to mRNA weight ratio of approximately 10:1 to 30:1. Briefly, the mRNA was diluted to 0.2 mg/mL in 10 to 50 mM citrate buffer, pH 4. Syringe pumps were used to mix the ethanolic lipid solution with the mRNA aqueous solution at a ratio of about 1:5 to 1:3 (vol/vol) with total flow rates above 15 ml/min. The ethanol was then removed and the external buffer replaced with PBS by dialysis. Finally, the lipid nanoparticles were filtered through a 0.2 μm pore sterile filter. Lipid nanoparticle particle size was 70-90 nm diameter as determined by quasi-elastic light scattering using a Nicomp 370 submicron particle sizer (Santa Barbara, Calif.).
Studies were performed in 6-8 week old female C57BL/6 mice (Charles River) according to guidelines established by an institutional animal care committee (ACC) and the Canadian Council on Animal Care (CCAC). Varying doses of mRNA-lipid nanoparticle were systemically administered by tail vein injection and animals euthanized at specific time points (1, 2, 4, 8 and 24 hrs) post-administration. Liver and spleen were collected in pre-weighted tubes, weights determined, immediately snap frozen in liquid nitrogen and stored at −80° C. until processing for analysis.
For liver, approximately 50 mg was dissected for analyses in a 2 mL FastPrep tubes (MP Biomedicals, Solon Ohio). ¼″ ceramic sphere (MP Biomedicals) was added to each tube and 500 μL of Glo Lysis Buffer—GLB (Promega, Madison Wis.) equilibrated to room temperature was added to liver tissue. Liver tissues were homogenized with the FastPrep24 instrument (MP Biomedicals) at 2×6.0 m/s for 15 seconds. Homogenate was incubated at room temperature for 5 minutes prior to a 1:4 dilution in GLB and assessed using SteadyGlo Luciferase assay system (Promega). Specifically, 50 μL of diluted tissue homogenate was reacted with 50 μL of SteadyGlo substrate, shaken for 10 seconds followed by 5 minute incubation and then quantitated using a CentroXS^3 LB 960 luminometer (Berthold Technologies, Germany). The amount of protein assayed was determined by using the BCA protein assay kit (Pierce, Rockford Ill.). Relative luminescence units (RLU) were then normalized to total ug protein assayed. To convert RLU to ng luciferase a standard curve was generated with QuantiLum Recombinant Luciferase (Promega). Based in the data provided in FIG. 1, the four-hour time point was chosen for efficacy evaluation of the lipid formulations (see EXAMPLE 48).
The FLuc mRNA (L-6107) from Trilink Biotechnologies will express a luciferase protein, originally isolated from the firefly, Photinus pyralis. FLuc is commonly used in mammalian cell culture to measure both gene expression and cell viability. It emits bioluminescence in the presence of the substrate, luciferin. This capped and polyadenylated mRNA is fully substituted with 5-methylcytidine and pseudouridine.
The cationic lipids shown in Table 2 have previously been tested with nucleic acids. For comparative purposes, these lipids were also used to formulate lipid nanoparticles containing the FLuc mRNA (L-6107) using an in line mixing method, as described in EXAMPLE 47 and in PCT/US10/22614, which is hereby incorporated by reference in its entirety. Lipid nanoparticles were formulated using the following molar ratio: 50% Cationic lipid/10% distearoylphosphatidylcholine (DSPC)/38.5% Cholesterol/1.5% PEG lipid (“PEG-DMG”, i.e., (1-(monomethoxy-polyethyleneglycol)-2,3-dimyristoylglycerol, with an average PEG molecular weight of 2000). Relative activity was determined by measuring luciferase expression in the liver 4 hours following administration via tail vein injection as described in EXAMPLE 47. The activity was compared at a dose of 0.3 and 1.0 mg mRNA/kg and expressed as ng luciferase/g liver measured 4 hours after administration, as described in EXAMPLE 47. […]

[2] = pKa of formulated cationic lipids in lipid nanoparticles (TNS fluorescence assay); assay type: physicochemical
Experimental: As described elsewhere, the pKa of formulated cationic lipids is correlated with the effectiveness of LNPs for delivery of nucleic acids (see Jayaraman et al, Angewandte Chemie, International Edition (2012), 51(34), 8529-8533; Semple et al, Nature Biotechnology 28, 172-176 (2010)). The preferred range of pKa is ˜5 to ˜7. […] Lipid nanoparticles comprising of cationic lipid/DSPC/cholesterol/PEG-lipid (50/10/38.5/1.5 mol %) in PBS at a concentration of 0.4 mM total lipid are prepared using the in-line process as described in EXAMPLE 47. TNS was prepared as a 100 μM stock solution in distilled water. Vesicles were diluted to 24 μM lipid in 2 mL of buffered solutions containing, 10 mM HEPES, 10 mM MES, 10 mM ammonium acetate, 130 mM NaCl, where the pH ranged from 2.5 to 11. An aliquot of the TNS solution was added to give a final concentration of 1 μM and following vortex mixing fluorescence intensity was measured at room temperature in a SLM Aminco Series 2 Luminescence Spectrophotometer using excitation and emission wavelengths of 321 nm and 445 nm. A sigmoidal best fit analysis was applied to the fluorescence data and the pKa was measured as the pH giving rise to half-maximal fluorescence intensity (see FIG. 2).

[3] = tested on: hFIX protein in mouse plasma; test: LNP delivery of human FIX mRNA, hFIX protein in mouse plasma by ELISA; assay type: in vivo; details: for Human Factor IX @ 0.3 mg/kg (ng mL in plasma): 0.3 mg/kg hFIX mRNA LNP; for Human Factor IX @ 0.3 mg/kg (ng mL in plasma) / Human Factor IX @ 1.0 mg/kg (ng mL in plasma): ELISA; for Human Factor IX @ 1.0 mg/kg (ng mL in plasma): 1.0 mg/kg hFIX mRNA LNP; for measured levels of hFIX expression (assessment): hFIX mRNA LNPs
Experimental: The LNPs with cationic lipids shown in Table 7 are formulated with mRNA coding for human FIX (e.g. TriLink Biotechnologies product L-6110) using the following molar ratio of lipids: 50% lipid/10% distearoylphosphatidylcholine (DSPC)/38.5% Cholesterol/1.5% PEG-lipid as described in EXAMPLE 47. Plasma protein is analyzed by ELISA using a commercially available kit (e.g. Abcam ab108831) as per the suppliers instructions. […] The duration of the hFIX at these levels is ˜15 hours or longer.

[4] = tested on: cherry red (CR) red fluorescent protein expression in liver; test: LNP activity using cherry red (CR) mRNA, liver sections by confocal fluorescence microscopy; assay type: in vivo, C57BL/6 mice
Experimental: LNPs using compound 6 are formulated as described in EXAMPLE 47 with mRNA coding for a red fluorescent protein called cherry red (CR, e.g. TriLink Biotechnologies product L-6113). In vivo studies are conducted as described in EXAMPLE 47 and sections of liver tissue are processed and observed by confocal fluorescence microscopy at 4, 6 and 24 hours post administration. Expression levels peaked at around 6 hours and maintained to at least 24 hours.

[5] = Table 3, LNP with 1.5% PEG-DMA (42-6), FLuc mRNA
[6] = Table 5, LNP with 1.5% PEG-lipid (42-6)
[7] = Table 3, in LNP cationic lipid/DSPC/cholesterol/PEG-lipid 50/10/38.5/1.5 mol %, read-out: pKa
[8] = Table 6, LNP with 1.5% PEG-lipid (42-6)

SMILES	Liver Luc @ 0.3 mg/kg (ng luc/g liver) [1, 5] [ng luc/g liver]	Liver Luc @ 1.0 mg/kg (ng luc/g liver) [1, 5] [ng luc/g liver]	pKa [2, 7]	Human Factor IX @ 0.3 mg/kg (ng mL in plasma) [3] [ng·mL]	Human Factor IX @ 1.0 mg/kg (ng mL in plasma) [3] [ng·mL]	further results
CCCCCCCCC(CCCCCC)C(=O)OCCCCCCN(CCCCCCOC(=O)C(CCCCCC)CCCCCCCC)CCN(C)C (stereo not drawn) [Compound 5]	1571 ± 414	12900 ± 4083	6.28	1097 ± 357	4556 ± 686	Liver Luc @ 0.3 mg/kg (ng luc/g liver) [1, 6]: 1571 ± 414 ng luc/g liver; Liver Luc @ 1.0 mg/kg (ng luc/g liver) [1, 6]: 12900 ± 4083 ng luc/g liver; pKa ([2]; Table 5, in LNP): 6.28; measured levels of hFIX expression (assessment) [3]: clinically relevant
CCCCCCCCC(CCCCCC)C(=O)OCCCCCCCCCN(CCCCCCCCCOC(=O)C(CCCCCC)CCCCCCCC)CCN(C)C (stereo not drawn) [Compound 6]	2015 ± 135	16006 ± 2487	6.12	713 ± 148	2697 ± 345	Liver Luc @ 0.3 mg/kg (ng luc/g liver) [1, 6]: 2015 ± 135 ng luc/g liver; Liver Luc @ 1.0 mg/kg (ng luc/g liver) [1, 6]: 16006 ± 2487 ng luc/g liver; Liver Luc @ 0.3 mg/kg (ng luc/g liver) [1, 8]: 2015 ± 135 ng luc/g liver; Liver Luc @ 1.0 mg/kg (ng luc/g liver) [1, 8]: 16006 ± 2487 ng luc/g liver; pKa ([2]; Table 5, in LNP): 6.12; pKa ([2]; Table 6, in LNP): 6.12; measured levels of hFIX expression (assessment) [3]: clinically relevant; time of peak expression levels ([4]; liver sections observed at 4, 6 and 24 hours post administration): around 6 hours; distribution of expression in tissue sections ([4]; liver sections, confocal fluorescence microscopy): homogeneous expression throughout the liver; expression maintained to ([4]; liver sections, post administration): at least 24 hours
CCCCCCCCC(CCCCCC)COC(=O)CCCCCN(CCCCCC(=O)OCC(CCCCCC)CCCCCCCC)CCN(C)CC (stereo not drawn) [Compound 33]	711 ± 272	4448 ± 512	6.27			
CC(C)=CCCC(C)CC(=O)OCCCCCCCCCCCCN(CCCCCCCCCCCCOC(=O)CC(C)CCC=C(C)C)CCN(C)C (stereo not drawn) [Compound 35]	35 ± 15	101 ± 69	6.21			
CCCCCCC(CCCC)C(=O)OCCCCCCCCCN(CCCCCCCCCOC(=O)C(CCCC)CCCCCC)CCN(C)C (stereo not drawn) [Compound 38]	977 ± 336	7135 ± 1020	6.24			
CCCCCCCCCCCCC(CCCCCCCCCC)C(=O)OCCCCCCN(CCCCCCOC(=O)C(CCCCCCCCCC)CCCCCCCCCCCC)CCN(C)C (stereo not drawn) [Compound 39]	36 ± 13	326 ± 81	5.82			
CCCCCCCCCCC(CCCCCCCC)C(=O)OCCCCCCCCCN(CCCCCCCCCOC(=O)C(CCCCCCCC)CCCCCCCCCC)CCN(C)C (stereo not drawn) [Compound 40]	236 ± 71	1704 ± 571	6.38			
CCCCCCCCCCCCC(CCCCCCCCCC)C(=O)OCCCCCCCCCN(CCCCCCCCCOC(=O)C(CCCCCCCCCC)CCCCCCCCCCCC)CCN(C)C (stereo not drawn) [Compound 41]	63 ± 27	799 ± 619	5.91			
CCCCC/C=C\C/C=C\CCCCCCCCC(CCCCCCCC/C=C\C/C=C\CCCCC)OC(=O)CCCN(C)C [MC3, reference compound]				336 ± 21	1154 ± 25	pKa ([2]; Table 5, in LNP, read-out: pKa): 6.09
